In test [1] the target is T1, human α2A‐adrenoceptor (Homo sapiens, UniProt P08913).
T1 sequence (P08913 1-465): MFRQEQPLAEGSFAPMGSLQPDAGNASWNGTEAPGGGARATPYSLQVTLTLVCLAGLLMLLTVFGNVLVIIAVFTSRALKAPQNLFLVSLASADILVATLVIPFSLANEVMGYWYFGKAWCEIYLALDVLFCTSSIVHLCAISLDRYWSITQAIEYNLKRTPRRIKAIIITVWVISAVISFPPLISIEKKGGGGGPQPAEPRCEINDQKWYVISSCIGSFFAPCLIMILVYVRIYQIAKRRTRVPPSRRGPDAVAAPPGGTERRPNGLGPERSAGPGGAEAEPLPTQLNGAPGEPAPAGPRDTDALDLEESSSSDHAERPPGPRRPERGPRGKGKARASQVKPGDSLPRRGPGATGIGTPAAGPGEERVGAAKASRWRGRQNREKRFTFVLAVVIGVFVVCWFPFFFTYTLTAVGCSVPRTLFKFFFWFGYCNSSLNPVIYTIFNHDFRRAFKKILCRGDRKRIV
Put plainly: ^3H‐rauwolscine whole cell competition binding, CHO‐α2A cells. Conditions: for Selectivity ratio α2A vs α2B (higher affinity for α2A): ratio of KD values.

Test [2] has as its target T2, human α2C‐adrenoceptor (Homo sapiens, UniProt P18825).
T2 sequence (P18825 1-462): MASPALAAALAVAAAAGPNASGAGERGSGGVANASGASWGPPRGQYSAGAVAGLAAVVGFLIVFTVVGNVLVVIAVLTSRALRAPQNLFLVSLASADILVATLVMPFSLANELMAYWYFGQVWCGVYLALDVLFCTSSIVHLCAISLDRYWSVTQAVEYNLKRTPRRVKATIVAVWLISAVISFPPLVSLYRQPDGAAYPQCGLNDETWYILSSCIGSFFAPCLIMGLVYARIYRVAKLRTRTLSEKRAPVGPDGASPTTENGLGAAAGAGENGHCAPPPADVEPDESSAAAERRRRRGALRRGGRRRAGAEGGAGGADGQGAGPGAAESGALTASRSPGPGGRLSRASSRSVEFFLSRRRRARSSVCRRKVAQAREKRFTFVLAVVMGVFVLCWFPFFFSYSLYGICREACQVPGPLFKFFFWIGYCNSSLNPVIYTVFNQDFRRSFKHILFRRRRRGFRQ
Put plainly: cell-based.

The target of a further test is T3, human α2B‐adrenoceptor (Homo sapiens, UniProt P18089).
T3 sequence (P18089 1-450): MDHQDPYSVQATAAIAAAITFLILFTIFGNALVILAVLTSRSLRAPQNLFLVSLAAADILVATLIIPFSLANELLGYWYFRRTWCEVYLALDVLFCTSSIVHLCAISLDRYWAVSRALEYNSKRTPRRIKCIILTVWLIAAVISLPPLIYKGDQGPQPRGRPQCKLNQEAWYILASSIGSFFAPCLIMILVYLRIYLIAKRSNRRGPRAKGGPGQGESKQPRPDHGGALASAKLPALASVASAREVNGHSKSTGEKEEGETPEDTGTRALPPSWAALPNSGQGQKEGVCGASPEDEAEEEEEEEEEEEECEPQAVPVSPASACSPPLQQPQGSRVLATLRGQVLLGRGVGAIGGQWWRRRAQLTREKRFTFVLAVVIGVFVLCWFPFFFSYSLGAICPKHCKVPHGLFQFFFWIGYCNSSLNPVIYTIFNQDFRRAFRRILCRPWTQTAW
Put plainly: ^3H‐rauwolscine whole cell competition binding, CHO‐α2B cells.

Test [3] concerns the target T1, human α2A‐adrenoceptor. Put plainly: cell-based.
Test [4] concerns the target T4, human β1‐adrenoceptor (Homo sapiens, UniProt P08588). Put plainly: cell-based.
For another test, the target named is human β2‐adrenoceptor (Homo sapiens, UniProt P07550). Type of test: binding. To be noted: for IC50: read-out: IC50 (log) β2, IC50>top concentration used (converted).
For test [5], the target named is T2, human α2C‐adrenoceptor. Put plainly: ^3H‐rauwolscine whole cell competition binding, CHO‐α2C cells. Conditions: for Selectivity ratio α2A vs α2C (higher affinity for α2C) / Selectivity ratio α2B vs α2C (higher affinity for α2C): ratio of KD values.
Test [6] concerns the target T4, human β1‐adrenoceptor.
Setting [7] is: ^3H‐CGP12177 whole cell binding, log values, mean ± s.e.mean, ^app = apparent KD, 'no binding to' = log top concentration.

Each structure is given as a SMILES string. Entries after “also recorded” stand apart in the source; their conditions may differ. Where two headings read alike, the source gives them in different places. Bounds are passed on as bounds.

T4 sequence (P08588 whole entry): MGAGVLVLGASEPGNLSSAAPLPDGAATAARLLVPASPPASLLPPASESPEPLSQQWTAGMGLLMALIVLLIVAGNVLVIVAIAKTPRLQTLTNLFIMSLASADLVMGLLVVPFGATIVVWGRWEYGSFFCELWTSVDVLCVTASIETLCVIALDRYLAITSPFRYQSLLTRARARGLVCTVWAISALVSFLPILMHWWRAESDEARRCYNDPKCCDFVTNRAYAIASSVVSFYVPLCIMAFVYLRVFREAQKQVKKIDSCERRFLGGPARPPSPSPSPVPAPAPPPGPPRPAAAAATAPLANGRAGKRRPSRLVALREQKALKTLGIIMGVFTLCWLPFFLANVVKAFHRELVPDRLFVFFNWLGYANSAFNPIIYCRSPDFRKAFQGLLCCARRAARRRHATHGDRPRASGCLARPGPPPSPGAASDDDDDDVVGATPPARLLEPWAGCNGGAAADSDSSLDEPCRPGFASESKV
human β2‐adrenoceptor, sequence (P07550 whole entry): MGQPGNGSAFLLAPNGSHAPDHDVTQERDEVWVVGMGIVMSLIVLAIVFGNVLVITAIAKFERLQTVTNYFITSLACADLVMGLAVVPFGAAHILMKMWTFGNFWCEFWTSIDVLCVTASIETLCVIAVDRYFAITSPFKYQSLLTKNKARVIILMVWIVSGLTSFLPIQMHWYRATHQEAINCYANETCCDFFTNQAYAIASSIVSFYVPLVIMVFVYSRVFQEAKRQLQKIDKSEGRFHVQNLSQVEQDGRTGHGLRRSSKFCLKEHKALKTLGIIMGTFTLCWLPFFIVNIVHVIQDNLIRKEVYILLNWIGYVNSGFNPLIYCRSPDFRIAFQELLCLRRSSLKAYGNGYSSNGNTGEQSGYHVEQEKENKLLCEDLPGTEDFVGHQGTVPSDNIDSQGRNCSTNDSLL

`Cn1cc(C(F)(F)F)nc1-c1ccc(OCC(O)CNCCOc2ccc(O)c(C(N)=O)c2)cc1` (stereo not shown) [CGP20712A]: the IC50 at human α2A‐adrenoceptor [1] and on human α2B‐adrenoceptor was over 100 µM throughout. The Kd on human α2C‐adrenoceptor [2] was 6.76 µM.
As for `Cc1ccc(OCC(O)C(C)NC(C)C)c2c1CCC2` (stereo not shown) [ICI118551], the Kd at human α2A‐adrenoceptor [3] is 9.33 µM; at human α2C‐adrenoceptor [2], 8.91 µM. Moreover, at human α2B‐adrenoceptor, the IC50 is over 100 µM.
As to `COC(=O)C1=C(C)NC(C)=C(C(=O)NCCCN2CCC(c3ccccc3)(c3ccccc3)CC2)C1c1ccc([N+](=O)[O-])cc1` (stereo not shown) [SNAP5089], the IC50 at human β1‐adrenoceptor [4] and on human β2‐adrenoceptor was over 10 µM in each case.
For `COc1cc2nc(N(C)CCCNC(=O)C3CCCO3)nc(N)c2cc1OC` (stereo not shown) [alfuzosin], the “Selectivity ratio α2A vs α2C (higher affinity for α2C)” value (shortened to “Selectivity ratio α2A vs α2C”) on human α2C‐adrenoceptor [5] amounted to 3.8. For the same molecule, at human α2C‐adrenoceptor [5], the “Selectivity ratio α2B vs α2C (higher affinity for α2C)” value (from here on “Selectivity ratio α2B vs α2C”) turned out to be 33.1. Also, the “Log KD β1” value on human β1‐adrenoceptor [6] (setting [7]) is recorded as “No binding”; on human β1‐adrenoceptor [6] (given as log KD (negative values), 3H-CGP12177 whole cell binding, CHO cells, mean ± s.e.mean), “No binding to -4”. Further, the Kd was 2.75 µM at human α2A‐adrenoceptor [3]; 0.724 µM on human α2C‐adrenoceptor [2]; 24 µM at human α2B‐adrenoceptor; 66.1 µM at human β2‐adrenoceptor (^3H‐CGP12177 whole cell binding, log values, mean ± s.e.mean, ^app = apparent KD, 'no binding to' = log top concentration, read-out: Log KD β2 (converted)). Also, at human α2A‐adrenoceptor [1], the “Selectivity ratio α2A vs α2B (higher affinity for α2A)” value is given as 8.7.
As to `CN(C)CCC=C1c2ccccc2CCc2ccccc21` [amitriptyline], the values for the Kd on human α2A‐adrenoceptor [3] and on human α2C‐adrenoceptor [2] were 1.38 µM and 0.214 µM, respectively. The IC50 against human β1‐adrenoceptor [4] is over 100 µM; on human β2‐adrenoceptor (^3H‐CGP12177, log value), over 100 µM.
As for `CN1[C@H]2C[C@H](OC(=O)[C@H](CO)c3ccccc3)C[C@@H]1[C@@H](O)C2` [anisodamine], the “Log KD α2C” value at human α2C‐adrenoceptor [5] was −3.56 ± 0.07^app. The “Log KD β1” value at human β1‐adrenoceptor [6] is listed as “no binding to −3; also recorded: no binding to -3”. Moreover, the “IC50 (log) α2A, IC50>top concentration used” value at human α2A‐adrenoceptor [1] is reported as “IC50>−3”. Moreover, the “IC50 (log) α2B, IC50>top concentration used” value at human α2B‐adrenoceptor is “IC50>−3”. In addition, the “Log KD β2” value at human β2‐adrenoceptor is “no binding to −3; also recorded: no binding to -3”.
With `COc1cccc(OC)c1OCCNCC1CSc2ccccc2O1` (stereo not shown) [benoxathian], at human α2C‐adrenoceptor [5], the “Log KD α2C” value is −7.75 ± 0.03, the “Selectivity ratio α2A vs α2C” value is on record as 3.8 and the “Selectivity ratio α2B vs α2C” value was determined as 61.7. Also, the “Log KD β1” value on human β1‐adrenoceptor [6] (setting [7]) is −4.55 ± 0.03^app. In addition, at human α2A‐adrenoceptor [1], the “Log KD α2A” value is on record as −7.17 ± 0.02 and the “Selectivity ratio α2A vs α2B (higher affinity for α2A)” value was 16.2. Moreover, the “Log KD α2B” value at human α2B‐adrenoceptor is −5.96 ± 0.06. The “Log KD β2” value on human β2‐adrenoceptor (setting [7]) was −5.08 ± 0.06.
As to `CC(C)NCC(O)COc1cccc2[nH]c3ccccc3c12` (stereo not shown) [carazolol], the Kd at human α2A‐adrenoceptor [3] and at human α2C‐adrenoceptor [2] was 21.9 µM throughout. The IC50 at human α2B‐adrenoceptor was over 100 µM.
The molecule `CN(C)CCCN1c2ccccc2CCc2ccc(Cl)cc21` [clomipramine] showed a Kd at human α2A‐adrenoceptor [3] of 1.95 µM.
As to `CNCC[C@H](Oc1cccc2ccccc12)c1cccs1` [duloxetine], the Kd is 2.14 µM at human α2C‐adrenoceptor [5], 3.72 µM at human α2A‐adrenoceptor [1] and 4.9 µM on human α2B‐adrenoceptor. Further, the IC50 against human β1‐adrenoceptor [4] was over 31.6 µM.
Regarding `c1ccc2c(c1)OCC(C1=NCCN1)O2` (stereo not shown) [idazoxan], the IC50 against human β1‐adrenoceptor [4] is over 1000 µM; on human β2‐adrenoceptor (^3H‐CGP12177, log value), over 1000 µM.
As to `CC(C(O)c1ccc(O)cc1)N1CCC(Cc2ccccc2)CC1` (stereo not shown) [ifenprodil], the “Selectivity ratio α2A vs α2C” value at human α2C‐adrenoceptor [5] stood at 6.2. Besides, at human α2C‐adrenoceptor [5], the “Selectivity ratio α2B vs α2C” value is reported as 4.6. The Kd is 0.977 µM on human α2A‐adrenoceptor [3], 0.158 µM at human α2C‐adrenoceptor [2] and 0.724 µM at human α2B‐adrenoceptor. For the same molecule, the “Selectivity ratio α2A vs α2B (higher affinity for α2B)” value at human α2B‐adrenoceptor (ratio of KD values) is given as 1.3. Further, the IC50 on human β1‐adrenoceptor [4] was over 10 µM; on human β2‐adrenoceptor (^3H‐CGP12177, log value) it was over 10 µM.

The record behind these values is publication PMC8882856, “The affinity and selectivity of α‐adrenoceptor antagonists, antidepressants and antipsychotics for the human α2A, α2B, and α2C‐adrenoceptors and comparison with human α1 and β‐adrenoceptors” (Pharmacology Research & Perspectives, 2022).
